From patent US7311878B2, “Method and apparatus for producing synergistic biocide” (Hercules Incorporated, priority 2005, dated 2007)
Marks after values point to notes of the source that are not given here.

System: multi-species bacterial consortium
Test: dose-challenge efficacy assay against bacterial consortium, spread plate cell enumeration
Assay type: cell-based
Details: for effect on cell counts of the consortium (in words) / population size of bacterial consortium, log10 colony counts: Example 1; for effect on cell counts of the consortium (in words): 0.5 mg/l total, 20 minutes exposure, pH 5 to 8; for population size of bacterial consortium, log10 colony counts: 20 minute exposure, total halogen 0.5 mg/l, average of three values; for numbers of surviving cells, Log10 transformations of the plate counts: Example 2, 20-minute contact time, 0.5 mg/l (as Cl2) active, initial approx. 2×10^5 bacteria per milliliter
Protocol: The efficacies of the individual haloamines and the synergistic combination produced with the apparatus described above were determined using a consortium of microorganisms and a dose-response protocol. Concentrations of monochloramine and dichloramine reported herein are in units of milligrams per liter as measured by Cl2 analysis; the Hach DPD chlorine test (Hach Company, Loveland, Colo.) was used to measure the total available chlorine concentrations and are expressed as milligrams per liter as Cl2. The DPD assay is based on the amount of chlorine in a sample that reacts with N,N-diethyl-p-phenylenediamine oxalate. To determine the amount of monochloramine or dichloramine in a sample, an aliquot of the sample was transferred to a clean container, diluted with deionized water, as appropriate, and assayed according to the Hach DPD chlorine test. The assay measures the total amount of chlorine that can react with the indicator reagent. The reaction is measured by determining the absorbance of light at 530 nm. Therefore, for the purposes of this invention, a quantity of monochloramine or dichloramine presented in units of mg/l signifies that amount of monochloramine or dichloramine that contains the designated amount of milligrams per liter of reactive chlorine. Thus, for example, a sample treated with 1 mg/l monochloramine or dichloramine will contain a total available chlorine concentration of 1 mg/l. Similarly, a sample treated with 0.5 mg/l monochloramine and 0.5-mg/l dichloramine will contain a total available chlorine concentration of 1 mg/l.
The materials were tested against multi-species bacterial consortium (also referred to as an artificial consortium) containing approximately equal numbers of six bacterial strains. Although the test strains are representative of organisms present in paper mill systems; the effect is not limited to these bacteria. Two of the strains were Klebsiella pneumonia (ATCC 13883) and Pseudomonas aeruginosa (ATCC 15442). The other four strains were isolated from papermill systems and have been presumptively identified as Curtobacterium flaccumfaciens, Burkholderia cepacia, Bacillus maroccanus, and Pseudomonas glathei. Each strain was grown on Tryptic Soy Agar overnight at 37° C. Sterile cotton-tipped swabs were used to aseptically transfer cells to a sterile solution of saline. Each cell suspension was prepared to a desired concentration as measured by turbidity before equal volumes of each of the cell suspensions were then combined to prepare the consortium.
A sample of the biocide solution was aseptically collected at the end of line 11 after the apparatus had been operated for approximately 20 minutes and used in an efficacy assay. Samples of the monochloramine solution in reservoir 3 and the dichloramine solution in mixing chamber 16 were also collected to test efficacy of each active. In the assay, the bacterial consortium was prepared as described above and an appropriate quantity of the cell suspension was aseptically transferred to sterile saline with pH adjusted to selected values. The cells were then challenged with the haloamines and synergistic combinations of the haloamines. In each case, the total halogen concentration was 0.5 mg/l (as […]). In this example, in addition to untreated control, the consortium was exposed to the following treatments: (1) 0.5 mg/l of monochloramine; 0.5 mg/l dichloramine; (3) 0.25 mg/l monochloramine plus 0.25 mg/l dichloramine; and (4) 0.4 mg/l monochloramine plus 0.1 mg/l dichloramine. The consortium was exposed to the haloamines for 20 minutes before samples were removed for cell enumeration by the spread plate technique. […] The control counts presented in Table 1 are those obtained after a 20 minute exposure to saline with pH adjusted to the indicated value.
The dose-challenge studies were carried out as previously described using a freshly prepared bacterial consortium. Sterile saline was prepared with pH adjusted to values of 5.0, 6.0, 7.0 and 8.0. […]

Structure (SMILES): ClNCl [DCA, dichloramine]
- effect on cell counts of the consortium (in words): decreased cell counts
- population size of bacterial consortium, log10 colony counts (pH 5 saline): 3.50 log10 colony counts
- population size of bacterial consortium, log10 colony counts (pH 6 saline): 5.16 log10 colony counts
- population size of bacterial consortium, log10 colony counts (pH 7 saline): 5.01 log10 colony counts
- population size of bacterial consortium, log10 colony counts (pH 8 saline): 5.19 log10 colony counts
- numbers of surviving cells, Log10 transformations of the plate counts (pH 5 saline): 3.56 Log10
- numbers of surviving cells, Log10 transformations of the plate counts (pH 6 saline): 5.16* Log10
- numbers of surviving cells, Log10 transformations of the plate counts (pH 7 saline): 5.07 Log10
- numbers of surviving cells, Log10 transformations of the plate counts (pH 8 saline): 5.24 Log10

Structure (SMILES): NCl [MCA, monochloramine]
- effect on cell counts of the consortium (in words): decreased cell counts
- population size of bacterial consortium, log10 colony counts (pH 5 saline): 4.93 log10 colony counts
- population size of bacterial consortium, log10 colony counts (pH 6 saline): 4.94 log10 colony counts
- population size of bacterial consortium, log10 colony counts (pH 7 saline): 5.06 log10 colony counts
- population size of bacterial consortium, log10 colony counts (pH 8 saline): 5.36 log10 colony counts
- numbers of surviving cells, Log10 transformations of the plate counts (pH 5 saline): 5.03 Log10
- numbers of surviving cells, Log10 transformations of the plate counts (pH 6 saline): 4.84 Log10
- numbers of surviving cells, Log10 transformations of the plate counts (pH 7 saline): 5.13 Log10
- numbers of surviving cells, Log10 transformations of the plate counts (pH 8 saline): 5.41 Log10
